Assay results taken from PubChem BioAssay AID330 (DTP/NCI, 2004).
Several values for one entry are separate records, joined by “and”; a condition that tells them apart may be missing. Identical values can stand only once. Toxic doses and inconclusive results are not listed.

Test system: P388 leukemia ip, CD2F1 mice, survival T/C
Test: NCI In Vivo Anticancer Drug Screen. Data for tumor model P388 Leukemia (intraperitoneal) in CD2F1 (CDF1) mice
Conditions: endpoint: median survival time, higher = longer survival
Summary of the method: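 Mice carrying the transplanted tumor received test compound or vehicle. Survival was recorded in each group, and the value is the treated-group measurement divided by that of the vehicle-treated control group.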

[1] = dose: 12.5 mg/kg/injection, schedule: Q01DX009 (ip), vehicle: water
[2] = dose: 50.0 mg/kg/injection, schedule: Q01DX009 (ip), vehicle: water
[3] = dose: 50.0 mg/kg/injection, schedule: Q01DX009 (ip), vehicle: saline with Tween-80
[4] = dose: 100.0 mg/kg/injection, schedule: Q01DX009 (ip), vehicle: saline with Tween-80
[5] = dose: 100.0 mg/kg/injection, schedule: Q01DX005 (ip), vehicle: saline with Tween-80
[6] = dose: 200.0 mg/kg/injection, schedule: Q01DX005 (ip), vehicle: saline with Tween-80
[7] = dose: 60.0 mg/kg/injection, schedule: Q01DX005 (ip), vehicle: saline with Tween-80
[8] = dose: 120.0 mg/kg/injection, schedule: Q01DX005 (ip), vehicle: saline with Tween-80
[9] = dose: 240.0 mg/kg/injection, schedule: Q01DX005 (ip), vehicle: saline with Tween-80
[10] = dose: 12.5 mg/kg/injection, schedule: Q01DX009 (ip), vehicle: saline with Tween-80
[11] = dose: 25.0 mg/kg/injection, schedule: Q01DX009 (ip), vehicle: saline with Tween-80
[12] = dose: 100.0 mg/kg/injection, schedule: Q01DX001 (ip), vehicle: saline with Tween-80
[13] = dose: 200.0 mg/kg/injection, schedule: Q01DX001 (ip), vehicle: saline with Tween-80
[14] = dose: 400.0 mg/kg/injection, schedule: Q01DX001 (ip), vehicle: saline with Tween-80
[15] = dose: 25.0 mg/kg/injection, schedule: Q01DX009 (ip), vehicle: Klucel (hydroxypropylcellulose) (HPC)
[16] = dose: 50.0 mg/kg/injection, schedule: Q01DX009 (ip), vehicle: Klucel (hydroxypropylcellulose) (HPC)

`OCC#CCOCC(O)CCl` (centres undefined) was tested, and the T/C [1] was 103 % of control, the T/C (dose: 25.0 mg/kg/injection, schedule: Q01DX009 (ip), vehicle: water) was 108 % of control and the T/C [2] was 107 % of control. The T/C (dose: 100.0 mg/kg/injection, schedule: Q01DX009 (ip), vehicle: water) was 98 % of control and the T/C (dose: 200.0 mg/kg/injection, schedule: Q01DX009 (ip), vehicle: water) was 103 % of control.
In the case of `COC(=O)Nc1nnc(Cn2c([N+](=O)[O-])cnc2C)s1`, the T/C (dose: 100.0 mg/kg/injection, schedule: Q01DX001 (ip), vehicle: Klucel (hydroxypropylcellulose) (HPC)) is reported as 96 % of control, the T/C (dose: 200.0 mg/kg/injection, schedule: Q01DX001 (ip), vehicle: Klucel (hydroxypropylcellulose) (HPC)) is reported as 101 % of control and the T/C (dose: 400.0 mg/kg/injection, schedule: Q01DX001 (ip), vehicle: Klucel (hydroxypropylcellulose) (HPC)) is reported as 93 % of control.
`Cc1ccc(N)c(C(O)(C(F)(F)F)C(F)(F)F)c1` was tested, and the T/C [3] was 99 % of control and the T/C [4] was 101 % of control.
With `CC(=O)OC12CC3CCC4C(CCC5(C)C(C(C)CCCC(C)C)CCC45)C3(C)CC1C(Cl)C2=O` (centres undefined) the T/C (dose: 50.0 mg/kg/injection, schedule: Q01DX005 (ip), vehicle: saline with Tween-80) was 99 % of control, the T/C [5] was 96 % of control and the T/C [6] was 96 % of control.
`COC1C(=O)OC(=O)C1OC` (centres undefined) was tested, and the T/C (dose: 15.0 mg/kg/injection, schedule: Q01DX005 (ip), vehicle: saline) was 109 % of control and 117 % of control, the T/C (dose: 30.0 mg/kg/injection, schedule: Q01DX005 (ip), vehicle: saline) was 102 % of control and 117 % of control and the T/C (dose: 60.0 mg/kg/injection, schedule: Q01DX005 (ip), vehicle: saline) was 100 % of control and 109 % of control and 90 % of control.
With `CC(NC(=O)OCc1ccccc1)C(=O)NC(C(=O)O)C(C)O` (centres undefined) the T/C (dose: 50.0 mg/kg/injection, schedule: Q01DX005 (ip), vehicle: Klucel (hydroxypropylcellulose) (HPC)) was 98 % of control, the T/C (dose: 100.0 mg/kg/injection, schedule: Q01DX005 (ip), vehicle: Klucel (hydroxypropylcellulose) (HPC)) was 99 % of control and the T/C (dose: 200.0 mg/kg/injection, schedule: Q01DX005 (ip), vehicle: Klucel (hydroxypropylcellulose) (HPC)) was 96 % of control.
In the case of `Cc1nc2c(cc1C#N)C(Nc1ccc(Cl)cc1)Oc1ccc([N+](=O)[O-])cc1-2` (centres undefined), the T/C [7] is reported as 92 % of control, the T/C [8] is reported as 92 % of control and the T/C [9] is reported as 90 % of control.
In the case of `O=C1CC(SC(=S)C2CCCC2=O)C(=O)O1` (centres undefined), the T/C [10] is reported as 109 % of control and 118 % of control, the T/C [11] is reported as 109 % of control and 118 % of control and the T/C [3] is reported as 118 % of control.
`COC(=O)c1[nH]cnc1O` was tested, and the T/C (dose: 50.0 mg/kg/injection, schedule: Q01DX005 (ip), vehicle: water) was 103 % of control, the T/C (dose: 100.0 mg/kg/injection, schedule: Q01DX005 (ip), vehicle: water) was 113 % of control and the T/C (dose: 200.0 mg/kg/injection, schedule: Q01DX005 (ip), vehicle: water) was 103 % of control.
For `CC1=CC(=Nc2cc(Br)c(O)c(Br)c2)C=CC1=O`, the T/C (dose: 6.25 mg/kg/injection, schedule: Q01DX005 (ip), vehicle: saline) was 100 % of control, the T/C (dose: 12.5 mg/kg/injection, schedule: Q01DX005 (ip), vehicle: saline) was 100 % of control and the T/C (dose: 25.0 mg/kg/injection, schedule: Q01DX005 (ip), vehicle: saline) was 105 % of control.
For `CC(C(O)CO)n1cnc2c(NCC(O)CO)ncnc21` (centres undefined), the T/C [12] was 101 % of control, the T/C [13] was 107 % of control and the T/C [14] was 100 % of control.
In the case of `O=c1[nH]c(Nc2ccccc2)c([N+](=O)[O-])c(=O)[nH]1`, the T/C [7] is reported as 106 % of control, the T/C [8] is reported as 107 % of control and the T/C [9] is reported as 106 % of control.
With `CCCCCCC(=O)CC(SCCS)c1ccc(Cl)c(Cl)c1` (centres undefined) the T/C (dose: 50.0 mg/kg/injection, schedule: Q01DX009 (ip), vehicle: saline) was 102 % of control and the T/C (dose: 100.0 mg/kg/injection, schedule: Q01DX009 (ip), vehicle: saline) was 89 % of control.
`CCOC(=O)C(N)CSC(c1ccccc1)(c1ccccc1)c1ccccc1` (centres undefined) was tested, and the T/C [1] was 117 % of control and 98 % of control, the T/C (dose: 25.0 mg/kg/injection, schedule: Q01DX009 (oral), vehicle: water) was 114 % of control and the T/C [2] was 155 % of control. For the same compound, the T/C (dose: 200.0 mg/kg/injection, schedule: Q04DX003 (ip), vehicle: saline) was 180 % of control.
With `COc1ccc(C(=O)C2C(C(=O)c3ccccc3)C23C(=O)N(C)c2ccccc23)cc1` (centres undefined) the T/C (dose: 25.0 mg/kg/injection, schedule: Q04DX002 (ip), vehicle: saline with Tween-80) was 101 % of control, the T/C (dose: 50.0 mg/kg/injection, schedule: Q04DX002 (ip), vehicle: saline with Tween-80) was 100 % of control and the T/C (dose: 100.0 mg/kg/injection, schedule: Q04DX002 (ip), vehicle: saline with Tween-80) was 98 % of control.
With `COc1cc2nc3cc([N+](=O)[O-])ccc3c(NCCNCC(C)(C)O)c2cc1OC` the T/C (dose: 6.25 mg/kg/injection, schedule: Q01DX005 (ip), vehicle: saline with Tween-80) was 102 % of control and 105 % of control and 96 % of control, the T/C (dose: 12.5 mg/kg/injection, schedule: Q01DX005 (ip), vehicle: saline with Tween-80) was 109 % of control and 115 % of control and 117 % of control and the T/C (dose: 25.0 mg/kg/injection, schedule: Q01DX005 (ip), vehicle: saline with Tween-80) was 117 % of control and 118 % of control and 121 % of control.
In the case of `c1ccc2c(SCCOCCSc3c4ccccc4nc4ccccc34)c3ccccc3nc2c1`, the T/C [7] is reported as 98 % of control, the T/C [8] is reported as 92 % of control and the T/C [9] is reported as 90 % of control.
For `COc1cc2c(cc1OC)C1CC(=O)C(CC(C)C)CN1CC2` (centres undefined), the T/C (dose: 12.5 mg/kg/injection, schedule: Q01DX009 (ip), vehicle: Klucel (hydroxypropylcellulose) (HPC)) was 100 % of control, the T/C [15] was 100 % of control and the T/C [16] was 103 % of control.
For `N#CC(Br)(CBr)COc1ccc(Cl)cc1Cl` (centres undefined), the T/C [10] was 100 % of control, the T/C [11] was 118 % of control and the T/C [3] was 108 % of control.
With `CC(C)(C(=O)O)n1c(-c2ccccc2)c(-c2ccccc2)oc1=O` the T/C (dose: 8.75 mg/kg/injection, schedule: Q01DX005 (ip), vehicle: Klucel (hydroxypropylcellulose) (HPC)) was 106 % of control, the T/C (dose: 17.5 mg/kg/injection, schedule: Q01DX005 (ip), vehicle: Klucel (hydroxypropylcellulose) (HPC)) was 106 % of control and the T/C (dose: 35.0 mg/kg/injection, schedule: Q01DX005 (ip), vehicle: Klucel (hydroxypropylcellulose) (HPC)) was 106 % of control.
`CC1(C)CCNc2ccccc2S1` was tested, and the T/C [12] was 103 % of control, the T/C [13] was 103 % of control and the T/C [14] was 100 % of control.
For `N#CCCSC(=S)N1CCCCC1`, the T/C [15] was 104 % of control, the T/C [16] was 104 % of control and 87 % of control and the T/C (dose: 100.0 mg/kg/injection, schedule: Q01DX009 (ip), vehicle: Klucel (hydroxypropylcellulose) (HPC)) was 98 % of control and 101 % of control. The T/C (dose: 200.0 mg/kg/injection, schedule: Q01DX009 (ip), vehicle: Klucel (hydroxypropylcellulose) (HPC)) was 90 % of control and 93 % of control and the T/C (dose: 400.0 mg/kg/injection, schedule: Q01DX009 (ip), vehicle: Klucel (hydroxypropylcellulose) (HPC)) was 101 % of control.
With `O=C(O)CCNC(=O)CCCO` the T/C (dose: 50.0 mg/kg/injection, schedule: Q01DX005 (ip), vehicle: saline) was 100 % of control, the T/C (dose: 100.0 mg/kg/injection, schedule: Q01DX005 (ip), vehicle: saline) was 104 % of control and the T/C (dose: 200.0 mg/kg/injection, schedule: Q01DX005 (ip), vehicle: saline) was 104 % of control.
With `O=[N+]([O-])c1ccc(/C=N\N=C\c2ccco2)cc1` the T/C [4] was 90 % of control, the T/C (dose: 200.0 mg/kg/injection, schedule: Q01DX009 (ip), vehicle: saline with Tween-80) was 100 % of control and the T/C (dose: 400.0 mg/kg/injection, schedule: Q01DX009 (ip), vehicle: saline with Tween-80) was 90 % of control.
In the case of `COc1c2ccoc2nc2c(O)c3c(c(CC=C(C)C)c12)OCO3`, the T/C (dose: 1.5 mg/kg/injection, schedule: Q01DX005 (ip), vehicle: Klucel (hydroxypropylcellulose) (HPC)) is reported as 102 % of control, the T/C (dose: 3.0 mg/kg/injection, schedule: Q01DX005 (ip), vehicle: Klucel (hydroxypropylcellulose) (HPC)) is reported as 104 % of control and the T/C (dose: 6.0 mg/kg/injection, schedule: Q01DX005 (ip), vehicle: Klucel (hydroxypropylcellulose) (HPC)) is reported as 103 % of control. The T/C (dose: 11.88 mg/kg/injection, schedule: Q01DX005 (ip), vehicle: Klucel (hydroxypropylcellulose) (HPC)) was 86 % of control, the T/C (dose: 12.0 mg/kg/injection, schedule: Q01DX005 (ip), vehicle: Klucel (hydroxypropylcellulose) (HPC)) was 96 % of control and the T/C (dose: 47.5 mg/kg/injection, schedule: Q01DX005 (ip), vehicle: Klucel (hydroxypropylcellulose) (HPC)) was 86 % of control.
For `CSc1nc(N)c2cnn(C3CCCO3)c2n1` (centres undefined), the T/C [5] was 102 % of control, the T/C [6] was 94 % of control and the T/C (dose: 400.0 mg/kg/injection, schedule: Q01DX005 (ip), vehicle: saline with Tween-80) was 97 % of control.
